Data taken from patent US12139526B2, “Modified chimeric receptors and related compositions and methods” (Juno Therapeutics, Inc., priority 2015, dated 2024).
Where a chain is given by its changes, count along the chain named. In names and notes the source's numbering stands.

Experiments:
[1] = molecular target: HLA-A*03:01 (Homo sapiens, UniProt P04439); test: REVEAL Epitope Discovery System in vitro MHC-peptide binding score; conditions: positive control peptide set at 100%, greater than 50 = good or high affinity binding
Method: (§1) Actual binding affinities for certain HLA class I alleles (A*02:01, A*03:01. A*11:01, and B*08:01) were assessed in vitro for exemplary overlapping 9 amino acid peptide sequences within a portion of the 26 amino acid junction region spanning the CD28 and 4-1BB junction. Specifically, assessment was of a series of overlapping 9-mer peptides derived from the sequence […] (set forth in SEQ ID NO: 7), which contains a portion of the CD28 transmembrane domain and 4-1BB costimulatory domain spanning the junction between the domains (bond joining the two amino acids noted in underline). In addition, a series of overlapping 9-mer peptides of each of a number of different variants of this portion also were assessed, each variant containing a mutation or mutations in this region as described in Example 2.
(§2) The various 9-mer overlapping peptides were synthesized and their purity tested by MALDI-TOF Mass Spectrometry. The synthetic peptides were then incubated with recombinant MHC molecules to assess binding properties using the REVEAL Epitope Discovery System, which is a high-throughput binding assay that measures the degree to which each peptide is able to stabilize a ternary MHC-peptide complex (ProImmune, Oxford, United Kingdom). Each peptide was separately tested for this ability with respect to each of the HLA class I alleles, normalized to the degree observed for a positive control (known T cell epitope for the relevant allele). The results are reported as a score, in which the binding was normalized to the positive control peptide set at 100%.

[2] = molecular target: HLA-A*02:01 (Homo sapiens, UniProt P04439, D140Y/D185E/D98H/E176V/E277Q/G131W/G231S/I119V/I121R/I166T/I218V/L300P/L318F/N151K/N90K/P208A/P217A/Q86G/Q94H/R138H/R169H/T345S); test: as above; conditions: for A*02:01 In Vitro Score: REVEAL score, positive control peptide set at 100%, greater than 50 = good or high affinity binding; for predicted or actual binding affinity or score for HLA class I: for at least one HLA allele (A*02:01, A*03:01, A*11:01, B*08:01) and/or at least one peptide, in silico or in vitro
Method: as §1, §2

[3] = molecular target: HLA-A*11:01 (Homo sapiens, UniProt P04439, A114D/D185E/E176A/F33Y/L180Q/S129P/T187R); test: as above; set-up: key: % binding, normalized to positive control peptide set at 100%; conditions: binding normalized to positive control peptide set at 100%, greater than 50 considered good or high affinity binding
Method: as §1, §2

[4] = molecular target: HLA-B*08:01 (Homo sapiens, UniProt P01889, A93T/A95T/D138N/E176V/E187T/K202T/Q94N/R180D/S35A/V36M/Y33D/Y91F); test: as above; set-up: key: % binding, normalized to positive control peptide set at 100%; conditions: binding normalized to positive control peptide set at 100%, greater than 50 considered good or high affinity binding
Method: as §1, §2

[5] = test system: intracellular IL-2 and IFN-γ; test: Intracellular cytokine expression after co-culture with K562-CD19; assay type: cell-based, human; conditions: versus unmodified CAR; for percentage of cells with IFN-γ cytokine expression: CD8+/CAR+ T cells after antigen stimulation; for percentage of cells with intracellular expression of IL-2: CD4+/CAR+ and CD8+/CAR+ T cells after antigen stimulation
Method: The production of cytokines by the anti-CD19 CAR T cells, expressing CARs containing either the native junction region or the various modified junction regions, was assessed. Engineered T cells were co-cultured with irradiated CD19-transduced K562 target cells (K562-CD19) or parental K562 cells not expressing the CD19 antigen in the presence of Golgi inhibitor. After stimulation, the cells were then fixed, permeabilized and intracellular IL-2 and IFN-γ cytokine levels were assessed by flow cytometry in CD4+/CAR+ cells and CD8+/CAR+ cells

Q: Which results are given for “VAFIIFWVR [9-mer variant junction peptide, K28R]”?
A: A*03:01 In Vitro [1]: 0.70; A*02:01 In Vitro Score [2]: 1.20; A*11:01 In Vitro Score [3]: 34.60; B*08:01 In Vitro Score [4]: 0.10

Q: With “VAFIIFWVS [9-mer variant junction peptide, K28S]” as the molecule, how does the “A*03:01 In Vitro” value [1] read?
A: 0.70

Q: What about the “A*02:01 In Vitro Score” value [2] of the same molecule?
A: 70.60

Q: What about the “A*11:01 In Vitro Score” value [3] of the same molecule?
A: 25.10

Q: And the “B*08:01 In Vitro Score” value [4]?
A: 0.10

Q: Which results are given for “WVARGRKKL [9-mer variant junction peptide, K28A]”?
A: A*03:01 In Vitro [1]: 1.30; A*02:01 In Vitro Score [2]: 8.80; A*11:01 In Vitro Score [3]: 13.80; B*08:01 In Vitro Score [4]: 32.40

Q: Which results are given for “WVKRGAKKL [9-mer variant junction peptide, R31A]”?
A: A*03:01 In Vitro [1]: 4.10; A*02:01 In Vitro Score [2]: 4.70; A*11:01 In Vitro Score [3]: 4.60; B*08:01 In Vitro Score [4]: 34.10

Q: Which “A*03:01 In Vitro” value [1] does the source give for “WVKRGHKKL [9-mer variant junction peptide, R31H]” here?
A: 1.40

Q: And the “A*02:01 In Vitro Score” value [2]?
A: 3.90

Q: And the “A*11:01 In Vitro Score” value [3]?
A: 2.80

Q: What about the “B*08:01 In Vitro Score” value [4] of the same molecule?
A: 47.60

Q: How did the “A*03:01 In Vitro” value [1] turn out when “WVKRGNKKL [9-mer variant junction peptide, R31N]” was run?
A: 0.90

Q: What about the “A*02:01 In Vitro Score” value [2] of the same molecule?
A: 2.40

Q: What about the “A*11:01 In Vitro Score” value [3] of the same molecule?
A: 4.10

Q: What about the “B*08:01 In Vitro Score” value [4] of the same molecule?
A: 65.90

Q: With “WVKRGSKKL [9-mer variant junction peptide, R31S]” as the molecule, how does the “A*03:01 In Vitro” value [1] read?
A: 1.90

Q: What about the “A*02:01 In Vitro Score” value [2] of the same molecule?
A: 3.00

Q: And the “A*11:01 In Vitro Score” value [3]?
A: 11.80

Q: What about the “B*08:01 In Vitro Score” value [4] of the same molecule?
A: 56.10

Q: Which results are given for “WVQRGNKKL [9-mer variant junction peptide, K28Q/R31N]”?
A: A*03:01 In Vitro [1]: 1.50; A*02:01 In Vitro Score [2]: 4.30; A*11:01 In Vitro Score [3]: 10.70; B*08:01 In Vitro Score [4]: 32.00

Q: Which results are given for “WVQRGRKKL [9-mer variant junction peptide, K28Q]”?
A: A*03:01 In Vitro [1]: 4.90; A*02:01 In Vitro Score [2]: 8.10; A*11:01 In Vitro Score [3]: 12.80; B*08:01 In Vitro Score [4]: 45.10

B1: R31H: variant anti-CD19 CAR / junction region with R31H, numbering SEQ ID NO:5 (protein)
chain: FWVLVVVGGVLACYSLLVTVAFIIFWVKRGHKKLLYIFKQPFMRPVQTTQEEDGCSCRFPEEEEGGCEL
modifications: CD28-4-1BB
Q: What does the source list for B1?
A: percentage of cells with IFN-γ cytokine expression [5]: increased IFN-γ cytokine expression; predicted or actual binding affinity or score for HLA class I [2]: reduced predicted or actual binding affinity or score

B2: L34S: variant anti-CD19 CAR / junction region with L34S, numbering SEQ ID NO:5 (protein)
chain: B1 chain with H31R, L34S
modifications: CD28-4-1BB
Q: B2 was tested. Which “percentage of cells with intracellular expression of IL-2” value [5] did it give?
A: greater percentage

Q: And the “predicted or actual binding affinity or score for HLA class I” value [2]?
A: reduced predicted or actual binding affinity or score

B3: L34A: variant anti-CD19 CAR / junction region with L34A, numbering SEQ ID NO:5 (protein)
chain: B1 chain with H31R, L34A
modifications: CD28-4-1BB
Q: B3 was tested. Which “percentage of cells with intracellular expression of IL-2” value [5] did it give?
A: greater percentage

Q: And the “percentage of cells with IFN-γ cytokine expression” value [5]?
A: increased IFN-γ cytokine expression

Q: And the “predicted or actual binding affinity or score for HLA class I” value [2]?
A: reduced predicted or actual binding affinity or score
